From patent publication US20210238197A1, “NOVEL OXOQUINOLIZINE COMPOUNDS FOR THE TREATMENT AND PROPHYLAXIS OF BACTERIAL INFECTION” (Hoffmann-La Roche Inc., priority 2018, published 2021)
Converted amounts (≈) assume the structure as drawn. Read-outs that look alike come from different tables or passages of the source.

How the values were obtained:
A. baumannii (ATCC17978) = test: 50% growth inhibitory concentration (IC50) determination assay, A. baumannii; assay type: cell-based; conditions: Acinetobacter baumannii, ATCC17978; Iso-Sensitest broth, growth by OD 600 nm over 16 h; <0.098 = detection limit
Outline: (§1)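 Compounds two-fold diluted from 50 to 0.097 μM (final) in Iso-Sensitest broth, inoculum ~5×10^5 CFU/mL. Incubation at 35±2 °C with OD600 read every 20 min over 16 h to track growth.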

[1] = system: K. pneumoniae (ATCC10031); test: 50% growth inhibitory concentration (IC50) determination assay, K. pneumoniae; assay type: cell-based; conditions: Klebsiella pneumoniae, ATCC10031; Iso-Sensitest broth, growth by OD 600 nm over 16 h; <0.098 = detection limit
Outline: as §1

S. aureus (ATCC29213) = test: 50% growth inhibitory concentration (IC50) determination assay, S. aureus; assay type: cell-based; conditions: Staphylococcus aureus, ATCC29213; Iso-Sensitest broth, growth by OD 600 nm over 16 h; <0.098 = detection limit
Outline: as §1

[2] = Lyophilisation solubility assay (LYSA); assay type: physicochemical; conditions: aqueous buffer, thermodynamic from solid; 0.05 M phosphate buffer, pH 6.5; <1.0 = detection limit
Protocol: The solubility of compounds of present invention was assessed by LYSA assay. Samples were prepared in duplicate from 10 mM DMSO stock solutions (20 μL) diluted in 30 μL pure DMSO. After evaporation of DMSO with a centrifugal vacuum evaporator, the residue was dissolved in 0.05 M phosphate buffer (150 μL, pH 6.5), which was stirred for one hour and shook for two hours. After one night, the solution was filtered using a microtiter filter plate. Then the filtrate and its 1/10 dilution were analyzed by HPLC-UV. In addition a four-point calibration curve was prepared from the 10 mM stock solutions and used for the solubility determination of the compounds.

[3] = Cytotoxicity assay (HepG2, CellTiter-Blue); assay type: cell-based; conditions: human; HepG2 cells, 3 days treatment; >100 = detection limit
Protocol: The cytotoxicity of compounds of present invention was assessed by HepG2 assay. HepG2 cells (ATCC RB-8065™) were seeded into 96-well plates (1.2×10^4 cells per well) and treated with compounds for 3 days, cell viability was measured at day 3 post compound treatment using the CellTiter-Blue® Cell Viability Assay (Promega, Cat. No. G8082). […], of Cell titer blue buffer were added to each well of the cells, which were incubated for 3 hours at 37° C., and the fluorescence value was measured by a plate reader (Molecular Device SpectraMax M2). The CC50 value of each compound is plotted with GraphPad Prism using four parameter logistic equation.

[4] = system: multiple species and strains; test: microbe, parasite or virus in culture; set-up: MIC S9 / MIC S7 / MIC S11 / MIC S8 / MIC S10: unit not given beside the values
Outline: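 Broth microdilution per CLSI M07-A10 in CAMHB, CAMHB+3% lysed horse blood or HTM. Inoculum was set to OD600 ~0.1, then diluted 1:280 (Gram-positive) or 1:400 (Gram-negative), and plates were incubated 18-24 h at 35±2° C in ambient air. MIC (μg/mL) is the lowest concentration giving no visible growth.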

Row | IC50 (A. baumannii (ATCC17978)) [nM] | IC50 [1] [nM] | IC50 (S. aureus (ATCC29213)) [nM] | solubility thermodynamic [2] [µg/mL] | Compound | other results
1 | < 98 | < 98 | 185 | 29 (≈ 53.4 µM) | CNc1cc(Cl)cc2c1[nH]c1ncc(-c3ccc4ccc(C(=O)O)c(=O)n4c3)c(N3CC[C@H]4CN(C)C[C@H]43)c12 (relative stereo) [Example 1.19, 7-[6-chloro-4-(cis-5-methyl-2,3,3a,4,6,6a-hexahydropyrrolo[2,3-c]pyrrol-1-yl)-8-(methylamino)-9H-pyrido[2,3-b]indol-3-yl]-4-oxo-quinolizine-3-carboxylic acid] | 
2 | < 98 | < 98 | < 98 | 41 (≈ 73.4 µM) | CNc1cc(F)c(F)c2c1[nH]c1ncc(-c3cc(C)c4ccc(C(=O)O)c(=O)n4c3)c(N3CC[C@H]4CN(C)C[C@H]43)c12 (relative stereo) [Example 2.01, 7-(5,6-Difluoro-8-(methylamino)-4-(cis-5-methyl-2,3,3a,4,6,6a-hexahydropyrrolo[2,3-c]pyrrol-1-yl)-9H-pyrido[2,3-b]indol-3-yl)-9-methyl-4-oxo-4H-quinolizine-3-carboxylic acid] | 
3 | < 98 | < 98 | 108 | 58 (≈ 103 µM) | CNc1cc(F)c(F)c2c1[nH]c1ncc(-c3cc(F)c4ccc(C(=O)O)c(=O)n4c3)c(N3CC[C@H]4CN(C)C[C@H]43)c12 (relative stereo) [Example 2.02, 7-[4-[cis-5-methyl-2,3,3a,4,6,6a-hexahydropyrrolo[2,3-c]pyrrol-1-yl]-5,6-difluoro-8-(methylamino)-9H-pyrido[2,3-b]indol-3-yl]-9-fluoro-4-oxo-quinolizine-3-carboxylic acid] | 
4 | < 98 | < 98 | 194 | > 1060 | CNc1cc(F)c(F)c2c1[nH]c1ncc(-c3ccc4c(CN(C)C)cc(C(=O)O)c(=O)n4c3)c(N3CC[C@H]4CN(C)C[C@H]43)c12 (relative stereo) [Example 2.03, 7-[4-[cis-5-methyl-2,3,3a,4,6,6a-hexahydropyrrolo[2,3-c]pyrrol-1-yl]-5,6-difluoro-8-(methylamino)-9H-pyrido[2,3-b]indol-3-yl]-1-[(dimethylamino)methyl]-4-oxo-quinolizine-3-carboxylic acid] | CC50 at 3 days [3]: 46400 nM
5 |  |  |  | 7 (≈ 11.4 µM) | CNc1cc(F)c(F)c2c1[nH]c1ncc(-c3ccc4c(C(F)(F)F)cc(C(=O)O)c(=O)n4c3)c(N3CC[C@H]4CN(C)C[C@H]43)c12 (relative stereo) [Example 2.06, 7-[4-[cis-5-methyl-2,3,3a,4,6,6a-hexahydropyrrolo[2,3-c]pyrrol-1-yl]-5,6-difluoro-8-(methylamino)-9H-pyrido[2,3-b]indol-3-yl]-4-oxo-1-(trifluoromethyl)quinolizine-3-carboxylic acid] | 
6 | < 98 | < 98 | 174 | 795 (≈ 1240 µM) | CNc1cc(F)c(F)c2c1[nH]c1ncc(-c3ccc4c(CN5CCOCC5)cc(C(=O)O)c(=O)n4c3)c(N3CC[C@H]4CN(C)C[C@H]43)c12 (relative stereo) [Example 2.09, 7-[4-[cis-5-methyl-2,3,3a,4,6,6a-hexahydropyrrolo[2,3-c]pyrrol-1-yl]-5,6-difluoro-8-(methylamino)-9H-pyrido[2,3-b]indol-3-yl]-1-(morpholinomethyl)-4-oxo-quinolizine-3-carboxylic acid] | CC50 at 3 days [3]: 86900 nM
7 |  |  |  | > 940 | CNc1cc(F)c(F)c2c1[nH]c1ncc(-c3ccc4c(CN5CCCC5)cc(C(=O)O)c(=O)n4c3)c(N3CC[C@H]4CN(C)C[C@H]43)c12 (relative stereo) [Example 2.10, 7-[4-[cis-5-methyl-2,3,3a,4,6,6a-hexahydropyrrolo[2,3-c]pyrrol-1-yl]-5,6-difluoro-8-(methylamino)-9H-pyrido[2,3-b]indol-3-yl]-4-oxo-1-(pyrrolidin-1-ylmethyl)quinolizine-3-carboxylic acid] | CC50 at 3 days [3]: 89200 nM
8 | < 98 | < 98 | < 98 | 9 (≈ 17.1 µM) | CNc1cc(F)cc2c1[nH]c1ncc(-c3ccc4ccc(C(=O)O)c(=O)n4c3)c(N3C[C@H]4CCN(C)[C@H]4C3)c12 (single isomer, unassigned) [Example 3.01A] | 
9 | < 98 | < 98 | < 98 | 16 (≈ 30.4 µM) | CNc1cc(F)cc2c1[nH]c1ncc(-c3ccc4ccc(C(=O)O)c(=O)n4c3)c(N3C[C@@H]4CCN(C)[C@@H]4C3)c12 (single isomer, unassigned) [Example 3.01B] | 
10 | < 98 | < 98 | 102 | 559 (≈ 1060 µM) | CNc1cc(F)cc2c1[nH]c1ncc(-c3ccc4ccc(C(=O)O)c(=O)n4c3)c(N3CC[C@H]4CN(C)C[C@H]43)c12 (single isomer, unassigned) [Example 3.02A] | CC50 at 3 days [3]: 41300 nM
11 | 483 | < 98 | 1280 | > 683 | CNc1cc(F)cc2c1[nH]c1ncc(-c3ccc4ccc(C(=O)O)c(=O)n4c3)c(N3CC[C@@H]4CN(C)C[C@@H]43)c12 (single isomer, unassigned) [Example 3.02B] | 
12 | < 98 | < 98 | < 98 | 90 (≈ 166 µM) | CNc1cc(F)cc2c1[nH]c1ncc(-c3ccc4ccc(C(=O)O)c(=O)n4c3)c(N3CCC4(C)CN(C)CC34)c12 (stereo not drawn) [Example 1.10, 7-[4-(3a,5-dimethyl-3,4,6,6a-tetrahydro-2H-pyrrolo[2,3-c]pyrrol-1-yl)-6-fluoro-8-(methylamino)-9H-pyrido[2,3-b]indol-3-yl]-4-oxo-quinolizine-3-carboxylic acid] | 
13 | 242 | < 98 | 379 | 48 (≈ 88.1 µM) | CNc1cc(F)cc2c1[nH]c1ncc(-c3ccc4ccc(C(=O)O)c(=O)n4c3)c(N3CCO[C@H](CN(C)C)C3)c12 [Example 2.07, (R)-7-(4-(2-((dimethylamino)methyl)morpholino)-6-fluoro-8-(methylamino)-9H-pyrido[2,3-b]indol-3-yl)-4-oxo-4H-quinolizine-3-carboxylic acid] | 
14 | 132 | < 98 | 433 | 54 (≈ 99.2 µM) | CNc1cc(F)cc2c1[nH]c1ncc(-c3ccc4ccc(C(=O)O)c(=O)n4c3)c(N3CCO[C@@H](CN(C)C)C3)c12 [Example 2.08, (S)-7-(4-(2-((dimethylamino)methyl)morpholino)-6-fluoro-8-(methylamino)-9H-pyrido[2,3-b]indol-3-yl)-4-oxo-4H-quinolizine-3-carboxylic acid] | 

Row | Compound | IC50 (A. baumannii (ATCC17978)) [nM] | IC50 [1] [nM] | IC50 (S. aureus (ATCC29213)) [nM] | solubility thermodynamic [2] [µg/mL] | other results
15 | CNc1cc(F)c(C#N)c2c1[nH]c1ncc(-c3ccc4ccc(C(=O)O)c(=O)n4c3)c(N3CC[C@H]4CCN(C)C4C3)c12 (stereo in doubt) [Example 1.17, 7-[4-[cis-1-methyl-3,3a,4,5,7,7a-hexahydro-2H-pyrrolo[2,3-c]pyridin-6-yl]-5-cyano-6-fluoro-8-(methylamino)-9H-pyrido[2,3-b]indol-3-yl]-4-oxo-quinolizine-3-carboxylic acid] | < 98 | < 98 | 139 | 12 (≈ 21.2 µM) | MIC ([4]; Acinetobacter baumannii, ATCC19606, read-out: MIC S1, A. baumannii ATCC 19606): 0.882 µg/mL (≈ 1.56 µM); MIC ([4]; Acinetobacter baumannii, ATCC51432, read-out: MIC S2, A. baumannii ATCC 51432): 0.882 µg/mL (≈ 1.56 µM); MIC ([4]; Acinetobacter baumannii, ATCCBAA747, read-out: MIC S3, A. baumannii ATCC BAA-747): 0.882 µg/mL (≈ 1.56 µM); MIC S9 ([4]; E. coli ATCC 35218): 0.882; MIC ([4]; Escherichia coli, ATCC25922, read-out: MIC S11, E. coli ATCC 25922): 0.166 µg/mL (≈ 0.293 µM); MIC ([4]; Escherichia coli, ATCCBAA2340, read-out: MIC S10, E. coli ATCC BAA-2340): 0.882 µg/mL (≈ 1.56 µM); MIC ([4]; Klebsiella pneumoniae, ATCC10031, read-out: MIC S4, K. pneumoniae ATCC 10031): 0.028 µg/mL (≈ 0.0495 µM); MIC ([4]; Klebsiella pneumoniae, ATCC700603, read-out: MIC S5, K. pneumoniae ATCC 700603): 3.54 µg/mL (≈ 6.25 µM); MIC ([4]; Klebsiella pneumoniae, ATCCBAA2146, read-out: MIC S6, K. pneumoniae ATCC BAA-2146): 3.54 µg/mL (≈ 6.25 µM); MIC ([4]; Pseudomonas aeruginosa, ATCC27853, read-out: MIC S7, P. aeruginosa ATCC 27853): 0.882 µg/mL (≈ 1.56 µM); MIC ([4]; Pseudomonas aeruginosa, ATCCBAA2113, read-out: MIC S8, P. aeruginosa ATCC BAA-2113): 3.54 µg/mL (≈ 6.25 µM)
